What was measured:
[1] = oil-in-water coefficient (logP) of nalbuphine and pro-soft drugs; format: physicochemical
[2] = drug saturated solubility in water; format: physicochemical
[3] = PLGA microspheres, subcutaneous injection, 50 mg/rabbit; cited from earlier work

O=C(CCCCCCCCC(=O)Oc1ccc2c3c1O[C@H]1[C@@H](O)CC[C@@]4(O)[C@@H](C2)N(CC2CCC2)CC[C@]314)Oc1ccc2c3c1O[C@H]1[C@@H](O)CC[C@@]4(O)[C@@H](C2)N(CC2CCC2)CC[C@]314 [Sebacoyl dinalbuphine ester]
logP [1]: 3.15 | Aqueous solubility [2]: <0.25 µg/mL

CCCCCCCCCC(=O)Oc1ccc2c3c1O[C@H]1[C@@H](O)CC[C@@]4(O)[C@@H](C2)N(CC2CCC2)CC[C@]314 [Nalbuphine decanoate]
logP [1]: 3.30 | Aqueous solubility [2]: 0.67 µg/mL | time the effective serum concentration lasted [3]: 4 days

CC(C)(C)C(=O)Oc1ccc2c3c1O[C@H]1[C@@H](O)CC[C@@]4(O)[C@@H](C2)N(CC2CCC2)CC[C@]314 [Nalbuphine pivalate]
logP [1]: 1.42 | Aqueous solubility [2]: 33.67 µg/mL | time the effective serum concentration lasted [3]: 4 days

CCCCCCC(=O)Oc1ccc2c3c1O[C@H]1[C@@H](O)CC[C@@]4(O)[C@@H](C2)N(CC2CCC2)CC[C@]314 [Nalbuphine enanthate]
logP [1]: 1.94 | Aqueous solubility [2]: 3.00 µg/mL

CCC(=O)Oc1ccc2c3c1O[C@H]1[C@@H](O)CC[C@@]4(O)[C@@H](C2)N(CC2CCC2)CC[C@]314 [Nalbuphine propionate]
logP [1]: 1.05 | Aqueous solubility [2]: 44.67 µg/mL | time the effective serum concentration lasted [3]: 4 days
